IC50 and viability, T/C data for 4 compounds are collected here from PubChem BioAssay AID2060508 (Molecular Pharmacology Branch, DTP, NCI, 2025).
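Also: spheroids exposed to compounds for seven days.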
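For viability, T/C in this document: 100% = DMSO vehicle control viability.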

The first assay deals with 454973-116-R2-J3-PDC spheroids, viability, % test/control. Kind of assay: Anticancer human tumor 454973-116-R2-J3-PDC patient-derived pancreatic carcinoma cell line growth inhibition [GQUAD]. The settings on record: curve of first compound; second compound 0.0316 µM; spheroids with HUVEC and MSC. The method in brief: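 Viability of tumor cells grown as complex spheroids with endothelial and stromal cells, exposed to drug combinations. Top concentration at or near clinical Cmax (else 10 microM), diluted in half-log increments.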
Take `C=CCn1c(=O)c2cnc(Nc3ccc(N4CCN(C)CC4)cc3)nc2n1-c1cccc(C(C)(C)O)n1` + Cc1[nH]c2ccc(F)cc2c1-c1nc2c3cccnc3c3ncccc3c2[nH]1: the IC50 turned out to be 0.364 µM.

`CC(C)(O)C1CCC(Nc2ccc3ncc(-c4cccc(C(F)(F)F)c4)n3n2)CC1` (configuration not stated) + Cc1[nH]c2ccc(F)cc2c1-c1nc2c3cccnc3c3ncccc3c2[nH]1: the IC50 came to 1.86 µM.

Turning to `COc1ncnc(C2CC2)c1-c1ncc2cnn(Cc3ccc(-c4nc(C(F)(F)F)cn4C(C)C)cc3)c2n1` + Cc1[nH]c2ccc(F)cc2c1-c1nc2c3cccnc3c3ncccc3c2[nH]1, the IC50 is more than 10 µM.

On to `O=C(NO)c1cnc(N2CCN(S(=O)(=O)c3ccc4ccccc4c3)CC2)nc1` + Cc1[nH]c2ccc(F)cc2c1-c1nc2c3cccnc3c3ncccc3c2[nH]1, for which the IC50 worked out at 0.221 µM.

The assay is the same for the next values; noted with them: curve of first compound; second compound 0.1 µM; spheroids with HUVEC and MSC.
Regarding `C=CCn1c(=O)c2cnc(Nc3ccc(N4CCN(C)CC4)cc3)nc2n1-c1cccc(C(C)(C)O)n1` + Cc1[nH]c2ccc(F)cc2c1-c1nc2c3cccnc3c3ncccc3c2[nH]1, the half-inhibitory concentration (IC50) came to 0.478 µM.

In the case of `CC(C)(O)C1CCC(Nc2ccc3ncc(-c4cccc(C(F)(F)F)c4)n3n2)CC1` (configuration not stated) + Cc1[nH]c2ccc(F)cc2c1-c1nc2c3cccnc3c3ncccc3c2[nH]1, the IC50 was 1.87 µM.

Take `COc1ncnc(C2CC2)c1-c1ncc2cnn(Cc3ccc(-c4nc(C(F)(F)F)cn4C(C)C)cc3)c2n1` + Cc1[nH]c2ccc(F)cc2c1-c1nc2c3cccnc3c3ncccc3c2[nH]1: the half-inhibitory concentration (IC50) was more than 10 µM.

Consider `O=C(NO)c1cnc(N2CCN(S(=O)(=O)c3ccc4ccccc4c3)CC2)nc1` + Cc1[nH]c2ccc(F)cc2c1-c1nc2c3cccnc3c3ncccc3c2[nH]1, for which the IC50 was found to be 0.36 µM.

Still in this assay, the particulars now being: curve of first compound; second compound 0.316 µM; spheroids with HUVEC and MSC.
Regarding `C=CCn1c(=O)c2cnc(Nc3ccc(N4CCN(C)CC4)cc3)nc2n1-c1cccc(C(C)(C)O)n1` + Cc1[nH]c2ccc(F)cc2c1-c1nc2c3cccnc3c3ncccc3c2[nH]1, the IC50 is 0.401 µM.

As to `CC(C)(O)C1CCC(Nc2ccc3ncc(-c4cccc(C(F)(F)F)c4)n3n2)CC1` (configuration not stated) + Cc1[nH]c2ccc(F)cc2c1-c1nc2c3cccnc3c3ncccc3c2[nH]1, the IC50 was found to be 1.84 µM.

In the case of `COc1ncnc(C2CC2)c1-c1ncc2cnn(Cc3ccc(-c4nc(C(F)(F)F)cn4C(C)C)cc3)c2n1` + Cc1[nH]c2ccc(F)cc2c1-c1nc2c3cccnc3c3ncccc3c2[nH]1, the IC50 is more than 10 µM.

With `O=C(NO)c1cnc(N2CCN(S(=O)(=O)c3ccc4ccccc4c3)CC2)nc1` + Cc1[nH]c2ccc(F)cc2c1-c1nc2c3cccnc3c3ncccc3c2[nH]1, the IC50 amounted to 0.384 µM.

Staying with this assay, now noted: curve of first compound; second compound 1 µM; spheroids with HUVEC and MSC.
Consider `C=CCn1c(=O)c2cnc(Nc3ccc(N4CCN(C)CC4)cc3)nc2n1-c1cccc(C(C)(C)O)n1` + Cc1[nH]c2ccc(F)cc2c1-c1nc2c3cccnc3c3ncccc3c2[nH]1, for which the IC50 worked out at 0.433 µM.

Consider `CC(C)(O)C1CCC(Nc2ccc3ncc(-c4cccc(C(F)(F)F)c4)n3n2)CC1` (configuration not stated) + Cc1[nH]c2ccc(F)cc2c1-c1nc2c3cccnc3c3ncccc3c2[nH]1, for which the IC50 was determined as 1.58 µM.

With `COc1ncnc(C2CC2)c1-c1ncc2cnn(Cc3ccc(-c4nc(C(F)(F)F)cn4C(C)C)cc3)c2n1` + Cc1[nH]c2ccc(F)cc2c1-c1nc2c3cccnc3c3ncccc3c2[nH]1, the IC50 is more than 10 µM.

Take `O=C(NO)c1cnc(N2CCN(S(=O)(=O)c3ccc4ccccc4c3)CC2)nc1` + Cc1[nH]c2ccc(F)cc2c1-c1nc2c3cccnc3c3ncccc3c2[nH]1: the IC50 worked out at 0.476 µM.

Staying with this assay, now noted: curve of first compound; second compound 3.16 µM; spheroids with HUVEC and MSC.
`C=CCn1c(=O)c2cnc(Nc3ccc(N4CCN(C)CC4)cc3)nc2n1-c1cccc(C(C)(C)O)n1` + Cc1[nH]c2ccc(F)cc2c1-c1nc2c3cccnc3c3ncccc3c2[nH]1: the IC50 was determined as 0.335 µM.

As for `CC(C)(O)C1CCC(Nc2ccc3ncc(-c4cccc(C(F)(F)F)c4)n3n2)CC1` (configuration not stated) + Cc1[nH]c2ccc(F)cc2c1-c1nc2c3cccnc3c3ncccc3c2[nH]1, the IC50 came out at 1.63 µM.

For the compound `COc1ncnc(C2CC2)c1-c1ncc2cnn(Cc3ccc(-c4nc(C(F)(F)F)cn4C(C)C)cc3)c2n1` + Cc1[nH]c2ccc(F)cc2c1-c1nc2c3cccnc3c3ncccc3c2[nH]1, the IC50 is more than 10 µM.

On to `O=C(NO)c1cnc(N2CCN(S(=O)(=O)c3ccc4ccccc4c3)CC2)nc1` + Cc1[nH]c2ccc(F)cc2c1-c1nc2c3cccnc3c3ncccc3c2[nH]1, for which the IC50 was 0.464 µM.

Still in this assay, the particulars now being: curve of first compound; second compound 10 µM; spheroids with HUVEC and MSC.
As for `C=CCn1c(=O)c2cnc(Nc3ccc(N4CCN(C)CC4)cc3)nc2n1-c1cccc(C(C)(C)O)n1` + Cc1[nH]c2ccc(F)cc2c1-c1nc2c3cccnc3c3ncccc3c2[nH]1, the IC50 was determined as 0.339 µM.

As for `CC(C)(O)C1CCC(Nc2ccc3ncc(-c4cccc(C(F)(F)F)c4)n3n2)CC1` (configuration not stated) + Cc1[nH]c2ccc(F)cc2c1-c1nc2c3cccnc3c3ncccc3c2[nH]1, the IC50 was determined as 1.39 µM.

`COc1ncnc(C2CC2)c1-c1ncc2cnn(Cc3ccc(-c4nc(C(F)(F)F)cn4C(C)C)cc3)c2n1` + Cc1[nH]c2ccc(F)cc2c1-c1nc2c3cccnc3c3ncccc3c2[nH]1: the IC50 was more than 10 µM.

With `O=C(NO)c1cnc(N2CCN(S(=O)(=O)c3ccc4ccccc4c3)CC2)nc1` + Cc1[nH]c2ccc(F)cc2c1-c1nc2c3cccnc3c3ncccc3c2[nH]1, the IC50 was 0.533 µM.

Still in this assay, the particulars now being: second compound 0.0316 µM; first compound 0.0316 µM; stronger effect = lower value; spheroids with HUVEC and MSC.
In the case of `C=CCn1c(=O)c2cnc(Nc3ccc(N4CCN(C)CC4)cc3)nc2n1-c1cccc(C(C)(C)O)n1` + Cc1[nH]c2ccc(F)cc2c1-c1nc2c3cccnc3c3ncccc3c2[nH]1, the viability, T/C was 124%.

Regarding `CC(C)(O)C1CCC(Nc2ccc3ncc(-c4cccc(C(F)(F)F)c4)n3n2)CC1` (configuration not stated) + Cc1[nH]c2ccc(F)cc2c1-c1nc2c3cccnc3c3ncccc3c2[nH]1, the viability, T/C was 112%.

As for `COc1ncnc(C2CC2)c1-c1ncc2cnn(Cc3ccc(-c4nc(C(F)(F)F)cn4C(C)C)cc3)c2n1` + Cc1[nH]c2ccc(F)cc2c1-c1nc2c3cccnc3c3ncccc3c2[nH]1, the viability, T/C is 112%.

In the case of `O=C(NO)c1cnc(N2CCN(S(=O)(=O)c3ccc4ccccc4c3)CC2)nc1` + Cc1[nH]c2ccc(F)cc2c1-c1nc2c3cccnc3c3ncccc3c2[nH]1, the viability, T/C is 108%.

Staying with this assay, now noted: second compound 0.0316 µM; first compound 0.1 µM; stronger effect = lower value; spheroids with HUVEC and MSC.
In the case of `C=CCn1c(=O)c2cnc(Nc3ccc(N4CCN(C)CC4)cc3)nc2n1-c1cccc(C(C)(C)O)n1` + Cc1[nH]c2ccc(F)cc2c1-c1nc2c3cccnc3c3ncccc3c2[nH]1, the viability, T/C was 92.8%.

On to `CC(C)(O)C1CCC(Nc2ccc3ncc(-c4cccc(C(F)(F)F)c4)n3n2)CC1` (configuration not stated) + Cc1[nH]c2ccc(F)cc2c1-c1nc2c3cccnc3c3ncccc3c2[nH]1, for which the viability, T/C was 97.4%.

As to `COc1ncnc(C2CC2)c1-c1ncc2cnn(Cc3ccc(-c4nc(C(F)(F)F)cn4C(C)C)cc3)c2n1` + Cc1[nH]c2ccc(F)cc2c1-c1nc2c3cccnc3c3ncccc3c2[nH]1, the viability, T/C is 100%.

As for `O=C(NO)c1cnc(N2CCN(S(=O)(=O)c3ccc4ccccc4c3)CC2)nc1` + Cc1[nH]c2ccc(F)cc2c1-c1nc2c3cccnc3c3ncccc3c2[nH]1, the viability, T/C is 84.8%.

The assay is the same for the next values; noted with them: second compound 0.0316 µM; first compound 0.316 µM; stronger effect = lower value; spheroids with HUVEC and MSC.
Consider `C=CCn1c(=O)c2cnc(Nc3ccc(N4CCN(C)CC4)cc3)nc2n1-c1cccc(C(C)(C)O)n1` + Cc1[nH]c2ccc(F)cc2c1-c1nc2c3cccnc3c3ncccc3c2[nH]1, for which the viability, T/C was 60.4%.

Take `CC(C)(O)C1CCC(Nc2ccc3ncc(-c4cccc(C(F)(F)F)c4)n3n2)CC1` (configuration not stated) + Cc1[nH]c2ccc(F)cc2c1-c1nc2c3cccnc3c3ncccc3c2[nH]1: the viability, T/C was 96.6%.

For the compound `COc1ncnc(C2CC2)c1-c1ncc2cnn(Cc3ccc(-c4nc(C(F)(F)F)cn4C(C)C)cc3)c2n1` + Cc1[nH]c2ccc(F)cc2c1-c1nc2c3cccnc3c3ncccc3c2[nH]1, the viability, T/C is 110%.

`O=C(NO)c1cnc(N2CCN(S(=O)(=O)c3ccc4ccccc4c3)CC2)nc1` + Cc1[nH]c2ccc(F)cc2c1-c1nc2c3cccnc3c3ncccc3c2[nH]1: the viability, T/C was 35.3%.

Still in this assay, the particulars now being: second compound 0.0316 µM; first compound 1 µM; stronger effect = lower value; spheroids with HUVEC and MSC.
For `C=CCn1c(=O)c2cnc(Nc3ccc(N4CCN(C)CC4)cc3)nc2n1-c1cccc(C(C)(C)O)n1` + Cc1[nH]c2ccc(F)cc2c1-c1nc2c3cccnc3c3ncccc3c2[nH]1, the viability, T/C was 15.3%.

`CC(C)(O)C1CCC(Nc2ccc3ncc(-c4cccc(C(F)(F)F)c4)n3n2)CC1` (configuration not stated) + Cc1[nH]c2ccc(F)cc2c1-c1nc2c3cccnc3c3ncccc3c2[nH]1: the viability, T/C is 76.8%.

For the compound `COc1ncnc(C2CC2)c1-c1ncc2cnn(Cc3ccc(-c4nc(C(F)(F)F)cn4C(C)C)cc3)c2n1` + Cc1[nH]c2ccc(F)cc2c1-c1nc2c3cccnc3c3ncccc3c2[nH]1, the viability, T/C was 110%.

Take `O=C(NO)c1cnc(N2CCN(S(=O)(=O)c3ccc4ccccc4c3)CC2)nc1` + Cc1[nH]c2ccc(F)cc2c1-c1nc2c3cccnc3c3ncccc3c2[nH]1: the viability, T/C is 2.53%.

The assay is the same for the next values; noted with them: second compound 0.0316 µM; first compound 3.16 µM; stronger effect = lower value; spheroids with HUVEC and MSC.
`C=CCn1c(=O)c2cnc(Nc3ccc(N4CCN(C)CC4)cc3)nc2n1-c1cccc(C(C)(C)O)n1` + Cc1[nH]c2ccc(F)cc2c1-c1nc2c3cccnc3c3ncccc3c2[nH]1: the viability, T/C is 7.69%.

On to `CC(C)(O)C1CCC(Nc2ccc3ncc(-c4cccc(C(F)(F)F)c4)n3n2)CC1` (configuration not stated) + Cc1[nH]c2ccc(F)cc2c1-c1nc2c3cccnc3c3ncccc3c2[nH]1, for which the viability, T/C is 21.8%.
